Reference: PubChem BioAssay AID1963426 (Molecular Pharmacology Branch, DTP, NCI, 2024)

Test system: 186277-243-T-J2-PDC complex spheroid growth, % test/control
Assay: Anticancer human tumor 186277-243-T-J2-PDC patient-derived colon adenocarcinoma cell line growth inhibition [Asc]
Settings: for IC50: curve of first compound; for viability, T/C: stronger effect = lower value; active means viability on the fitted dose curve at most 10% of control; inactive means the rest
Experimental: Multicellular complex tumor spheroid response to apoptosis pathway targeting inhibitors Alrizomadlin, Pelcitoclax, and Dasminapant in combination with a variety of drugs and investigational agents in selected tumor cell lines
The MDM2 inhibitor alrizomadlin, the Bcl-2/Bcl-xL inhibitor pelcitoclax, and the IAPs inhibitor dasminapant were evaluated both individually and in combination with standard of care and investigational anticancer small molecules within a complex spheroid model of solid tumors. . Complex spheroids include a stromal component modeled by human endothelial cells (HUVEC) and fibroblasts modeled by human mesenchymal stem cells (MSCs). The concentration ranges selected for each drug and investigational agent were based upon clinically achievable concentrations if the clinical Cmax of the agent was known.
Compounds. The drugs and investigational agents: alrizomadlin (APG-115; NSC831270), pelcitoclax (APG-1252; NSC835773), dasminapant (APG-1387;NSC834197), TAK-243 (NSC785004), copanlisib (NSC809693), olaparib (NSC753686), talazoparib (NSC767125), cobimetinib (NSC 768068), eltanexor (KPT-8602, NSC 794443), abemaciclib (NSC 768073), sotorasib (NSC818433), adagrasib (NSC 831453), MRTX-1133 (NSC 836407), Iadademestat (ORY1001, NSC 806812), and RMC-4630 (NSC839698), were obtained from the NCI Developmental Therapeutics Program Chemical Repository. The FDA-approved anticancer drug set is available from the Developmental Therapeutics Program at https://dtp.cancer.gov/organization/dscb/obtaining/available plates.htm. […] The stock solutions were prepared in dimethyl sulfoxide (DMSO, Sigma-Aldrich, St. Louis, MO, cat. D2650) at 800-fold the tested concentration and stored at -70 degrees C prior to their use. All drugs and investigational agents were tested over a range starting from a high concentration at or near the clinical Cmax and decreasing in half-log increments. If the clinical Cmax for an agent had not been determined, the highest concentration tested was 10 microM.
The patient-derived cancer (PDC) cell lines include five colon adenocarcinomas: 186277-243-T-J2-PDC, 616215-338-R-J1-PDC, 439559-082-T-J2-PDC, 463943-066-T-J2-PDC, and 519858-162-T-J1-PDC; three pancreatic carcinomas: 323965-272-R-J2-PDC, 521955-158-R6-J3-PDC, and 521955-158-R2-J5-PDC; two uterine sarcomas: 327498-152-R-J2-PDC and 993429-296-R-J1-PDC; two rhabdomyosarcomas: 755483-174-R-J1-PDC and 772245-204-R-J1-PDC; two soft tissue sarcomas: 126254-015-R-J1-PDC and 494315-158-R-J1-PDC; two malignant fibrous histiocytomas: 317291-083-R-J1-PDC and 596521-263-R-J1-PDC; two breast carcinomas: 171881-019-R-J1-PDC and 885512-296-R-J2-PDC; and one ovarian carcinoma: 6556581-035-R-J-PDC were obtained from the NCI PDMR, (https://pdmr.cancer.gov). The established cell lines HSSY-2 synovial sarcoma (RRID:CVCL 8719), SYO-1 synovial sarcoma (RRID:CVCL_7146), MPNST malignant peripheral neural sheath tumor were obtained from the Sloan Kettering Institute. The following established cell lines were purchased from the American Type Culture Collection (ATCC, Manassas, VA), Sor the received from the NCI repository:, PANC-1 pancreatic carcinoma (CRL-1469, RRID:CVCL_0480), OVCAR-5 ovarian carcinoma (RRID:CVCL_1628), OVCAR-8 ovarian carcinoma (RRID:CVCL_1629), , MCF-7 breast carcinoma (CRL-12584, RRID:CVCL_0031), MDA-MB-231 breast carcinoma (CRL-12532, RRID:CVCL_0062), NCI-H1876 small cell lung carcinoma (CRL-5902, RRID:CVCL_1503), NCI-H510A small cell lung carcinoma (HTB-184, RRID:CVCL_1565), NCI-H1417 (CRL-5869, RRID:CVCL_1469), and NCI-H196 small cell lung carcinoma (CRL-5823, RRID:CVCL_1509). Dr. Peter Houghton (Greehey Children's Cancer Research Institute, University of Texas Health Science Center, San Antonio, TX) provided Rh-18 rhabdomyosarcoma (RRID:CVCL_1659). Pooled donor human umbilical vein endothelial cells (HUVEC, Lonza, cat. CC-2519) and human mesenchymal stem cells (hMSC, Lonza, cat. PT-2501) were purchased from Lonza (Walkersville, MD).
Cell Culture. […]
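Further: spheroids exposed to agents for 7 days.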
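Wherever viability, T/C is given: 100% = DMSO vehicle control wells.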

CCN1C(C(=O)NC23CCC(C(=O)O)(CC2)CC3)C(c2cccc(Cl)c2F)C2(C(=O)Nc3cc(Cl)ccc32)C12CCCCC2 (stereo not given) + CNC(C)C(=O)NC1CN(S(=O)(=O)c2cccc(S(=O)(=O)N3CCC4CCC(C(=O)NC(c5ccccc5)c5ccccc5)N4C(=O)C(NC(=O)C(C)NC)C3)c2)CCC2CCC(C(=O)NC(c3ccccc3)c3ccccc3)N2C1=O
2820 nM: IC50 (second compound 0.1 µM)
> 3000 nM: IC50 (second compound 0.01 µM)
2690 nM: IC50 (second compound 0.0316 µM) | IC50 (second compound 0.316 µM)
inactive: viability, T/C (second compound 0.01 µM, first compound 0.00949 µM) 116% | viability, T/C (second compound 0.01 µM, first compound 0.03 µM) 147% | viability, T/C (second compound 0.01 µM, first compound 0.0949 µM) 155% | viability, T/C (second compound 0.01 µM, first compound 0.3 µM) 115% | viability, T/C (second compound 0.01 µM, first compound 0.949 µM) 76.7% | viability, T/C (second compound 0.01 µM, first compound 3 µM) 53.6% | viability, T/C (second compound 0.0316 µM, first compound 0.00949 µM) 112% | viability, T/C (second compound 0.0316 µM, first compound 0.03 µM) 141% | viability, T/C (second compound 0.0316 µM, first compound 0.0949 µM) 152% | viability, T/C (second compound 0.0316 µM, first compound 0.3 µM) 125% | viability, T/C (second compound 0.0316 µM, first compound 0.949 µM) 84.5% | viability, T/C (second compound 0.0316 µM, first compound 3 µM) 46.3% | viability, T/C (second compound 0.1 µM, first compound 0.00949 µM) 131% | viability, T/C (second compound 0.1 µM, first compound 0.03 µM) 143% | viability, T/C (second compound 0.1 µM, first compound 0.0949 µM) 147% | viability, T/C (second compound 0.1 µM, first compound 0.3 µM) 122% | viability, T/C (second compound 0.1 µM, first compound 0.949 µM) 76.5% | viability, T/C (second compound 0.1 µM, first compound 3 µM) 48.2% | viability, T/C (second compound 0.316 µM, first compound 0.00949 µM) 129% | viability, T/C (second compound 0.316 µM, first compound 0.03 µM) 149% | viability, T/C (second compound 0.316 µM, first compound 0.0949 µM) 149% | viability, T/C (second compound 0.316 µM, first compound 0.3 µM) 118% | viability, T/C (second compound 0.316 µM, first compound 0.949 µM) 75% | viability, T/C (second compound 0.316 µM, first compound 3 µM) 46.8% | viability, T/C (second compound 1 µM, first compound 0.00949 µM) 134% | viability, T/C (second compound 1 µM, first compound 0.03 µM) 132% | viability, T/C (second compound 1 µM, first compound 0.0949 µM) 159% | viability, T/C (second compound 1 µM, first compound 0.3 µM) 118% | viability, T/C (second compound 1 µM, first compound 0.949 µM) 74.9% | viability, T/C (second compound 1 µM, first compound 3 µM) 43.5%
2390 nM: IC50 (second compound 1 µM)

NC1CCC(NC2CC2c2ccccc2)CC1 (stereo not given) + CCN1C(C(=O)NC23CCC(C(=O)O)(CC2)CC3)C(c2cccc(Cl)c2F)C2(C(=O)Nc3cc(Cl)ccc32)C12CCCCC2
> 100 nM: IC50 (second compound 0.03 µM) | IC50 (second compound 0.0949 µM) | IC50 (second compound 0.3 µM) | IC50 (second compound 0.949 µM)
< 0.316 nM: IC50 (second compound 3 µM)
inactive: viability, T/C (second compound 0.03 µM, first compound 0.000316 µM) 111% | viability, T/C (second compound 0.03 µM, first compound 0.001 µM) 138% | viability, T/C (second compound 0.03 µM, first compound 0.00316 µM) 112% | viability, T/C (second compound 0.03 µM, first compound 0.01 µM) 106% | viability, T/C (second compound 0.03 µM, first compound 0.0316 µM) 123% | viability, T/C (second compound 0.03 µM, first compound 0.1 µM) 113% | viability, T/C (second compound 0.0949 µM, first compound 0.000316 µM) 114% | viability, T/C (second compound 0.0949 µM, first compound 0.001 µM) 132% | viability, T/C (second compound 0.0949 µM, first compound 0.00316 µM) 134% | viability, T/C (second compound 0.0949 µM, first compound 0.01 µM) 131% | viability, T/C (second compound 0.0949 µM, first compound 0.0316 µM) 131% | viability, T/C (second compound 0.0949 µM, first compound 0.1 µM) 141% | viability, T/C (second compound 0.3 µM, first compound 0.000316 µM) 93.4% | viability, T/C (second compound 0.3 µM, first compound 0.001 µM) 97.8% | viability, T/C (second compound 0.3 µM, first compound 0.00316 µM) 94.9% | viability, T/C (second compound 0.3 µM, first compound 0.01 µM) 93.3% | viability, T/C (second compound 0.3 µM, first compound 0.0316 µM) 92.9% | viability, T/C (second compound 0.3 µM, first compound 0.1 µM) 91.3% | viability, T/C (second compound 0.949 µM, first compound 0.000316 µM) 66.3% | viability, T/C (second compound 0.949 µM, first compound 0.001 µM) 69.2% | viability, T/C (second compound 0.949 µM, first compound 0.00316 µM) 66.1% | viability, T/C (second compound 0.949 µM, first compound 0.01 µM) 65.8% | viability, T/C (second compound 0.949 µM, first compound 0.0316 µM) 67.9% | viability, T/C (second compound 0.949 µM, first compound 0.1 µM) 65.7% | viability, T/C (second compound 3 µM, first compound 0.000316 µM) 42.1% | viability, T/C (second compound 3 µM, first compound 0.001 µM) 43.6% | viability, T/C (second compound 3 µM, first compound 0.00316 µM) 44.1% | viability, T/C (second compound 3 µM, first compound 0.01 µM) 39.5% | viability, T/C (second compound 3 µM, first compound 0.0316 µM) 41.4% | viability, T/C (second compound 3 µM, first compound 0.1 µM) 42.8%
